The values that follow come from ChEMBL document CHEMBL4190187, “Discovery of pyrazolopyrimidine derivatives as novel inhibitors of ataxia telangiectasia and rad3 related protein (ATR)” (Bioorg Med Chem Lett, 2017).

In assay [1] the target is Serine/threonine-protein kinase Chk1 (Homo sapiens) (UniProt O14757). The assay can be described thus: Inhibition of recombinant full-length human CHK1 at 1 uM using KKKVSRSGLYRSPSMPENLNRPR as substrate after 40 mins in presence of [gamma-33P]ATP by scintillation counting method.
The target of assay [2] is PI3K p110 beta/p85 beta (Mus musculus) (UniProt Q8BTI9+O08908). The assay can be described thus: Inhibition of recombinant full-length mouse p110b/p85b at 1 uM using phosphatidylinositol 4,5-bisphosphate as substrate after 40 mins in presence of [gamma-33P]ATP by scintillation counting method. It is filed as protein-complex assay.
The target in assay [3] is Serine/threonine-protein kinase MARK2 (Homo sapiens) (UniProt Q7KZI7). The assay can be described thus: Inhibition of recombinant full-length human PAR-1Balpha at 1 uM using KKKVSRSGLYRSPSMPENLNRPR as substrate after 40 mins in presence of [gamma-33P]ATP by scintillation counting method.
The target in assay [4] is Mitogen-activated protein kinase 1 (Homo sapiens) (UniProt P28482). Briefly: Inhibition of recombinant full-length human MAPK2 at 1 uM using myelin basic protein as substrate after 40 mins in presence of [gamma-33P]ATP by scintillation counting method.
Assay [5] has as its target Misshapen-like kinase 1 (Homo sapiens) (UniProt Q8N4C8). The assay can be described thus: Inhibition of recombinant human MINK (1 to 310 residues) at 1 uM using myelin basic protein as substrate after 40 mins in presence of [gamma-33P]ATP by scintillation counting method.
For assay [6], the target named is Serine/threonine-protein kinase BRSK2 (Homo sapiens) (UniProt Q8IWQ3). Briefly: Inhibition of recombinant human BrSK2 (2 to end residues) at 1 uM using KKLNRTLSFAEPG as substrate after 40 mins in presence of [gamma-33P]ATP by scintillation counting method.
For assay [7], the target named is Dual specificity tyrosine-phosphorylation-regulated kinase 2 (Homo sapiens) (UniProt Q92630). Briefly: Inhibition of recombinant full-length human DYRK2 at 1 uM using casein as substrate after 40 mins in presence of [gamma-33P]ATP by scintillation counting method.
In assay [8] the target is RAF proto-oncogene serine/threonine-protein kinase (Homo sapiens) (UniProt P04049). Briefly: Inhibition of recombinant human c-RAF (306 to end residues) at 1 uM using inactive MEK1 as substrate after 40 mins in presence of [gamma-33P]ATP by scintillation counting method.
Assay [9] deals with PI3K p110 alpha/p85 alpha (Mus musculus) (UniProt P26450+P42337). Briefly: Inhibition of recombinant full-length mouse p110a E542K mutant/p85a at 1 uM using phosphatidylinositol 4,5-bisphosphate as substrate after 40 mins in presence of [gamma-33P]ATP by scintillation counting method. In kind it is protein-complex assay.

Serine/threonine-protein kinase BRSK2 (Homo sapiens), sequence (Q8IWQ3 whole entry): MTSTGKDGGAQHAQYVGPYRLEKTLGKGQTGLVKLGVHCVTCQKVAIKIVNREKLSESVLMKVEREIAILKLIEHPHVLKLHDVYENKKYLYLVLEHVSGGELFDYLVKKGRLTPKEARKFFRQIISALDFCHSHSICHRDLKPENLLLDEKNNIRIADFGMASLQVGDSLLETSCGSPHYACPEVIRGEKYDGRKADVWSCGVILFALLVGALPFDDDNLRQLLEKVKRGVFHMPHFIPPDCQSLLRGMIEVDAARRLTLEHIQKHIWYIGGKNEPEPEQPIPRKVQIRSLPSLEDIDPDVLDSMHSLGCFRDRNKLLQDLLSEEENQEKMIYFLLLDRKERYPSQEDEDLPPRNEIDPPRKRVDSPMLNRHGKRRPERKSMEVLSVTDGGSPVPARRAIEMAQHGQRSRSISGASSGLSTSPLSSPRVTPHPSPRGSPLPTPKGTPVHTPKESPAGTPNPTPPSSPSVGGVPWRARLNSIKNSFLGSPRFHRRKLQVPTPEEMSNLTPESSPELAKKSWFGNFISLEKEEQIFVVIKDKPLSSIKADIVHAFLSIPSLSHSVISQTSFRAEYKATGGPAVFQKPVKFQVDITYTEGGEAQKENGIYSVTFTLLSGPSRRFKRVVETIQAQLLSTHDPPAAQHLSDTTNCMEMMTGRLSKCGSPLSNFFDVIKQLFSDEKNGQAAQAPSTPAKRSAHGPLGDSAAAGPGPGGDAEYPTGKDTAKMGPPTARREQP
RAF proto-oncogene serine/threonine-protein kinase (Homo sapiens), sequence (P04049 whole entry): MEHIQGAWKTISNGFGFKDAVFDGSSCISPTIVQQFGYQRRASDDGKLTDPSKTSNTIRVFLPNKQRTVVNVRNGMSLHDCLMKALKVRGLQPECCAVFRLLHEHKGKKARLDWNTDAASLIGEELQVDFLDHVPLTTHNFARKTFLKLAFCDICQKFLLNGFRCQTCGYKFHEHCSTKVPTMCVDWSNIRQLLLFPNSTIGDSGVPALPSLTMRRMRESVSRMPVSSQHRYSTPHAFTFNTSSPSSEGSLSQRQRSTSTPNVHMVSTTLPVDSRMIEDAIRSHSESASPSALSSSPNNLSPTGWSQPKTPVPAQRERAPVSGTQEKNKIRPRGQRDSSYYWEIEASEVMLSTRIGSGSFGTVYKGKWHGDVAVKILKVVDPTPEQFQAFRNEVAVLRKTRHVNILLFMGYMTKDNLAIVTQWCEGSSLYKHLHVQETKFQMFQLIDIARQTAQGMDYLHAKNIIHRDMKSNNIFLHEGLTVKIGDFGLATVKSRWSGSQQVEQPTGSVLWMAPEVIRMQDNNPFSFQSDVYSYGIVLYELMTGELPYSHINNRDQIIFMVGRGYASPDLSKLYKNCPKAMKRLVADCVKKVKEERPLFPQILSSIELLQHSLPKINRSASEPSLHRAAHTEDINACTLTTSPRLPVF
Mitogen-activated protein kinase 1 (Homo sapiens), sequence (P28482 whole entry, the tested form may be a part): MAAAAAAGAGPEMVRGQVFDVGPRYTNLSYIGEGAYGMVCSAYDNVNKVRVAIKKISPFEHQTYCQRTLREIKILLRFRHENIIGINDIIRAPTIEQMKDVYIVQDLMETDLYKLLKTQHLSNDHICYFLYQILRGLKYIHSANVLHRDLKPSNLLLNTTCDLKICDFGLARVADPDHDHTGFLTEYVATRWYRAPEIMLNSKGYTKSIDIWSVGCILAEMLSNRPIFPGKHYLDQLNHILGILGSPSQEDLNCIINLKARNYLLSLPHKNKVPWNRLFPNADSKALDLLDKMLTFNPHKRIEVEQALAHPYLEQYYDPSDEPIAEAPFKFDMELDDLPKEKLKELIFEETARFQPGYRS
Serine/threonine-protein kinase MARK2 (Homo sapiens), sequence (Q7KZI7 whole entry): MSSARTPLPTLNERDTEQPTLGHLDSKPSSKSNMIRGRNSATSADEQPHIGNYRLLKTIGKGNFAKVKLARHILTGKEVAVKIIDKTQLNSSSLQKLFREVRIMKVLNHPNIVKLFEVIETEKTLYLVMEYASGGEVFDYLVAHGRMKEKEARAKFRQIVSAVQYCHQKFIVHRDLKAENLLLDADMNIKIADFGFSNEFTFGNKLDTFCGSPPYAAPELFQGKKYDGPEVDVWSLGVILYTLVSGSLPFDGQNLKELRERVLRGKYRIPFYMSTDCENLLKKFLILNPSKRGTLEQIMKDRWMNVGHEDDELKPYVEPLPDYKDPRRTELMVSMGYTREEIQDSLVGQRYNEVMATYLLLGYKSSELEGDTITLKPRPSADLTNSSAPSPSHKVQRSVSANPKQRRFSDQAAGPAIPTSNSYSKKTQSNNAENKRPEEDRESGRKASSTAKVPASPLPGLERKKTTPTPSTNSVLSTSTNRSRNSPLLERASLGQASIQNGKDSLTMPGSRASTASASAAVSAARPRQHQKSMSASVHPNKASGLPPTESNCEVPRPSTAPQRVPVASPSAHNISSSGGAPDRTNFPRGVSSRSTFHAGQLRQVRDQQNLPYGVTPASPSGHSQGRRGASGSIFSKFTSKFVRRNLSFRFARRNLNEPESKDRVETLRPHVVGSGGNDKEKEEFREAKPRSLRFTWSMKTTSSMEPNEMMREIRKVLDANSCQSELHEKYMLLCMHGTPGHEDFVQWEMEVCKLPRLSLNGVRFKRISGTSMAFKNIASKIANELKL
Serine/threonine-protein kinase Chk1 (Homo sapiens), sequence (O14757 whole entry): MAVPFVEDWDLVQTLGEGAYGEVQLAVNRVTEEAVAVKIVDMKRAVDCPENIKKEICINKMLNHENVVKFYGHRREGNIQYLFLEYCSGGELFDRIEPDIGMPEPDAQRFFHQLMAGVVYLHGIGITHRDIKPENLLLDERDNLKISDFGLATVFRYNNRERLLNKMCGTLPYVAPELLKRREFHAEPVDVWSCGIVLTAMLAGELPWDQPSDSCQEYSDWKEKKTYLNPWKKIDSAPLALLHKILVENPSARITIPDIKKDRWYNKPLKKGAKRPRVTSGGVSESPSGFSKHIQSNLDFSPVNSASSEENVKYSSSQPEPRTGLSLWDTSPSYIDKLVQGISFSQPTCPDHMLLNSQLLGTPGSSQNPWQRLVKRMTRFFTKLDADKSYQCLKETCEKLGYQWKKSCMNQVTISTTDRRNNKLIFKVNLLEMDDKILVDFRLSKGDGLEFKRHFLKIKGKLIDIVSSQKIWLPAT
Dual specificity tyrosine-phosphorylation-regulated kinase 2 (Homo sapiens), sequence (Q92630 whole entry): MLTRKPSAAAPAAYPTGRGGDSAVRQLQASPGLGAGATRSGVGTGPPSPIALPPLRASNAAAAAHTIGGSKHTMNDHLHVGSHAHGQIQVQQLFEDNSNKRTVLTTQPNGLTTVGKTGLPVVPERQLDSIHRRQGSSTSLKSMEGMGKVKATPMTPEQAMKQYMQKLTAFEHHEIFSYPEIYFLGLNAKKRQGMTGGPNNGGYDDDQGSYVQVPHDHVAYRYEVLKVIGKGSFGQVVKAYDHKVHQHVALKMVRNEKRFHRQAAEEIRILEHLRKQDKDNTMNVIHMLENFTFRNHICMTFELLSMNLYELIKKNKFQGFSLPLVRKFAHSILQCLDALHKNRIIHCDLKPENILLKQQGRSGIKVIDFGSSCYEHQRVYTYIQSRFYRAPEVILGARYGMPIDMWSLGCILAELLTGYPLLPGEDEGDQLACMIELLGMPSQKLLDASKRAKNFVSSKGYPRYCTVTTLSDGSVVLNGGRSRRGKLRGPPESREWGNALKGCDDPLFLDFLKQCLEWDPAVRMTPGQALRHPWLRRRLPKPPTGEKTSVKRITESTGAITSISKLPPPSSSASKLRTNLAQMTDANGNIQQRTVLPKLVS
Misshapen-like kinase 1 (Homo sapiens), sequence (Q8N4C8 whole entry, looked up, the tested form may be a part): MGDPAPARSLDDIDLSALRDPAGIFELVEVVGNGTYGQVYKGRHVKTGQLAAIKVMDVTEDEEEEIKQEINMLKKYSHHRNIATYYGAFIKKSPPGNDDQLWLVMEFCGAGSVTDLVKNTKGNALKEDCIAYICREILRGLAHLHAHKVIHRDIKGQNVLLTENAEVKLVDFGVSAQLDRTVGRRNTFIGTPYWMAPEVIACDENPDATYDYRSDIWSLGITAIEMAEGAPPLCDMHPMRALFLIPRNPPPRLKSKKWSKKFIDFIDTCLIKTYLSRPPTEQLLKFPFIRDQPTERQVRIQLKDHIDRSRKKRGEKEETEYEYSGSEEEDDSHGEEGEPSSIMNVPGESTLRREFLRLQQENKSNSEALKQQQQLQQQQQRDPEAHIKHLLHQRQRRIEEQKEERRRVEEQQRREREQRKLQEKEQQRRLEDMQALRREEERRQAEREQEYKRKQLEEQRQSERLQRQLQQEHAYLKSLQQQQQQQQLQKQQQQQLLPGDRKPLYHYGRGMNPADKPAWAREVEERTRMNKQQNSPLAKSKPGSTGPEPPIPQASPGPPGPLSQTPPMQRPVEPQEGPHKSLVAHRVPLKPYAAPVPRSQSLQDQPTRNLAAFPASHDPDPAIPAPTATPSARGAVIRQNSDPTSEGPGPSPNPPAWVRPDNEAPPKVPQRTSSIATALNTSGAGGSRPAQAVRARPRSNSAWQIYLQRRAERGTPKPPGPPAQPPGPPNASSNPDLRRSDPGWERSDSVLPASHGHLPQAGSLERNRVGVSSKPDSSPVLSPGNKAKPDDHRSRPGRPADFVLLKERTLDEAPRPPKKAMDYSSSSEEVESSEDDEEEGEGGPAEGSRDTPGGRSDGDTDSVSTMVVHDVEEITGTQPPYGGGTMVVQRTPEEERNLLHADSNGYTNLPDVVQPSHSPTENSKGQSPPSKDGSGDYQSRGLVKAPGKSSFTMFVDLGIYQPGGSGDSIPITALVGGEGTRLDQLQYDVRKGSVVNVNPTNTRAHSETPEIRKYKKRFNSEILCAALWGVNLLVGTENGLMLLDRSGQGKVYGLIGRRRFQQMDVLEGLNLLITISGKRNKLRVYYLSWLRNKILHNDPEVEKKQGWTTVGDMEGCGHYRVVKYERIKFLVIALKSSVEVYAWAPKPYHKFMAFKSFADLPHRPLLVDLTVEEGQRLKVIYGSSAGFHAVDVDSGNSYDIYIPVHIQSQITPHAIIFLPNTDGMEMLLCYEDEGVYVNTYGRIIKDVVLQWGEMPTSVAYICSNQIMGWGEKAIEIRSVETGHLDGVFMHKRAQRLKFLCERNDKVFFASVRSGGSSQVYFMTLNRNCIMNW

By inhibition is commonly meant the relative decrease from the control value, in per cent. For the compound `CS(=O)(=O)c1ccc(-n2nc(-c3cnc4[nH]ccc4c3)c3c(N)ncnc32)cc1`, the inhibition in assay [1] was 2%; in assay [2], 1%; in assay [3], 6%; in assay [4] it was 1%; in assay [5], -10%; in assay [6], 3%. Besides, the results for the inhibition in assay [7], in assay [8] and in assay [9] were -10%, -1% and 11%, respectively.
